# Read-outs that look alike come from different tables or passages of the source.
# Legend:
# [1] = system: PepX; assay: Effect of protease inhibitors (PMSF, EDTA) on partially purified PepX activity, Gly-Pro-pNA substrate; assay type: biochemical, Lacticaseibacillus sp. PRA205; conditions: pH 7.0, 37 °C; for effect on PepX enzymatic activity (decrease): inhibitor 1 mmol/L
# Procedure: PepX activity in the Lcb. casei PRA205 cytoplasmic extract was assessed in a 96-well plate using glycyl-prolyl-p-nitroanilide (Gly-Pro-pNA) as a specific substrate in the absence and presence of inhibitors. The reaction mixture containing 235 µL of 50 mmol/L Tris-Cl buffer (pH 7) and 5 µL of Gly-Pro-pNA substrate (previously dissolved in the same buffer in a concentration of 6.4 mmol/L) was pre-incubated at 37 °C for 5 min, before the addition of 10 µL of cytoplasmic extract. The same reactions were also carried out in the presence of EDTA and PMSF at increasing concentrations of 0.1, 0.5, 1, 5 and 10 mmol/L. Controls contained a buffer instead of an extract. After incubation for 2 h at 37 °C, reactions were stopped with 50 µL of acetic acid (30%) and the release of pNA was measured spectrophotometrically at 405 nm.
# The effect of temperature on the PepX activity was determined as described above, modifying the incubation temperature while maintaining a constant pH of 7. The assay was carried out at four temperatures: 5 °C, 35 °C, 40 °C, and 45 °C. The effect of pH on enzyme activity was evaluated at a constant temperature of 37 °C by modifying the pH of the reaction buffer. Tris-HCL buffer (50 mmol/L) was utilized for reactions at pH 4–9, whereas sodium Tris-HCL buffer (50 mmol/L) was used for the assay at pH 7.0. The effect of protease inhibitors was tested by supplementing the reaction mix with EDTA or PMSF at final concentrations of 0, 1, 2, 5, or 10 mmol/L under standard conditions (pH 7.0, 37 °C).
# [2] = system: di-peptidyl-peptidase-IV (DPP-IV); conditions: cited from earlier work
# Procedure: (§1) Considering the cleavage specificity of PepX and the presence of proline residues in many dairy-derived BPs, the ability of PepX to hydrolyse selected BPs was evaluated. Selected BPs were well-known effective inhibitors of the enzymes ACE and di-peptidyl-peptidase-IV (DPP-IV). […] These two peptides have been identified in several fermented dairy products such as yoghurt and cheeses. The other peptides, ...
# [3] = system: blood pressure; conditions: humans; cited from earlier work
# [4] = system: blood pressure; conditions: rats; cited from earlier work
# [5] = system: ACE; conditions: cited from earlier work
# Procedure: as §1
compound,measurement,setting,value
O=C(O)CN(CCN(CC(=O)O)CC(=O)O)CC(=O)O [EDTA],effect on PepX enzymatic activity (decrease),[1]; vs control without inhibitor,no effect
same,residual PepX activity,"[1]; inhibitor 10 mmol/L, vs control without inhibitor",40%
APFPE,DPP-IV inhibition,[2],potent DPP-IV inhibitors
LPPT,DPP-IV inhibition,[2],potent DPP-IV inhibitors
O=S(=O)(F)Cc1ccccc1 [PMSF],effect on PepX enzymatic activity (decrease),[1]; vs control without inhibitor,more than 40%
same,effect on PepX enzymatic activity,[1]; inhibitor 5 mmol/L,completely abolished
same,effect on PepX enzymatic activity,[1]; inhibitor 10 mmol/L,completely abolished
IPPL,DPP-IV inhibition,[2],potent DPP-IV inhibitors
"Val-Pro-Pro [VPP, anti-hypertensive lactotripeptide derived from β-casein]",reduction of blood pressure in vivo,[3],effective in vivo in reducing blood pressure
same,reduction of blood pressure in vivo,[4],effective in vivo in reducing blood pressure
same,ACE inhibition,[5],potent ACE inhibitors
"Ile-Pro-Pro [IPP, anti-hypertensive lactotripeptide derived from β-casein]",reduction of blood pressure in vivo,[3],effective in vivo in reducing blood pressure
same,reduction of blood pressure in vivo,[4],effective in vivo in reducing blood pressure
same,ACE inhibition,[5],potent ACE inhibitors

# Reference: paper PMC13342036, “Genomic and Proteolytic Profiling of Lacticaseibacillus sp. PRA205: Insights into PepX-Mediated Bioactive Peptide Metabolism” (Probiotics and Antimicrobial Proteins, 2025)
